Measured values taken from patent US7521444B2, “Compounds for the treatment of hepatitis C” (Bristol-Myers Squibb Company, priority 2007, dated 2009).

Assays:
HCV replicon cells = assay: HCV replicon FRET / luciferase assay; format: cell-based; conditions: Hepatitis C virus, 50% reduction in FRET or luciferase activity
Protocol: FRET Assay Preparation. The HCV FRET screening assay was performed in 96-well cell culture plates. The FRET peptide (Anaspec, Inc.) (Taliani et al., Anal. Biochem. 1996, 240, 60-67) contains a fluorescence donor, EDANS, near one end of the peptide and an acceptor, DABCYL, near the other end. The fluorescence of the peptide is quenched by […] resonance energy transfer (RET) between the donor and the acceptor, but as the NS3 protease cleaves the peptide the products are released from RET quenching and the fluorescence of the donor becomes apparent. The assay reagent was made as follows: 5× cell Luciferase cell culture lysis reagent from Promega (#E153A) diluted to 1× with dH2O, NaCl added to 150 mM final, the FRET peptide diluted to 20 μM final from a 2 mM stock.
To prepare plates, HCV replicon cells, with or without a Renilla luciferase reporter gene, were trypsinized and plated in a 96-well plate with titrated test compounds added in columns 3 through 12; columns 1 and 2 contained a control compound (HCV control inhibitor), and the bottom row contained cells with DMSO only. The plates were then placed in a CO2 incubator at 37° C.
Assays. Subsequent to addition of the test compounds described above (FRET Assay Preparation), at various times the plate was removed and Alamar blue solution (Trek Diagnostics, #00-100) was added to measure cellular toxicity. After reading in a Cytoflour 4000 instrument (PE Biosystems), plates were rinsed with PBS and then used for FRET assay by the addition of 30 ul of the FRET peptide assay reagent described above (FRET Assay Preparation) per well. The plate was then placed into the Cytoflour 4000 instrument which had been set to 340 excite/490 emission, automatic mode for up to 20 cycles and the plate read in a kinetic mode. Typically, the signal to noise using an endpoint analysis after the reads was at least three-fold. Alternatively, after Alamar blue reading, plates were rinsed with PBS, then used for luciferase assay using the Promega Dual-Glo Luciferase Assay System or the Promega EnduRen Live Cell Substrate assay.
Compound analysis was performed by quantification of the relative HCV replicon inhibition and the relative cytotoxicity values. To calculate cytoxicity values, the average Alamar Blue fluorescence signals from the control wells were set as 100% non-toxic. The individual signals in each of the compound test wells were then divided by the average control signal and multiplied by 100% to determine […]. To calculate the HCV replicon inhibition values, an average background value was obtained from the two wells containing the highest amount of HCV control inhibitor at the end of the assay period. These numbers were similar to those obtained from naïve Huh-7 cells. The background numbers were then subtracted from the average signal obtained from the control wells and this number was used as 100% activity. The individual signals in each of the compound test wells were then divided by the averaged control values after background subtraction and multiplied by 100% to determine percent activity. EC50 values were calculated as the concentration which caused a 50% reduction in FRET or luciferase activity. The two numbers generated for the compound plate, percent cytoxicity and percent activity, were used to determine compounds of interest for further analysis.

HCV NS5B = biological target: T1, HCV NS5B (Hepatitis C virus genotype 1b, UniProt Q9WMX2); assay: HCV NS5B RdRp enzyme assay (standard or modified); format: biochemical; conditions: HCV NS5B RdRp genotype 1b enzyme; standard or modified assay not stated
T1 construct: The protein was expressed with an 18 amino acid C-terminal truncation to enhance the solubility; made in house; host or cells: E. coli BL21(DE3), pET21a
T1 sequence (Q9WMX2 2420-2992): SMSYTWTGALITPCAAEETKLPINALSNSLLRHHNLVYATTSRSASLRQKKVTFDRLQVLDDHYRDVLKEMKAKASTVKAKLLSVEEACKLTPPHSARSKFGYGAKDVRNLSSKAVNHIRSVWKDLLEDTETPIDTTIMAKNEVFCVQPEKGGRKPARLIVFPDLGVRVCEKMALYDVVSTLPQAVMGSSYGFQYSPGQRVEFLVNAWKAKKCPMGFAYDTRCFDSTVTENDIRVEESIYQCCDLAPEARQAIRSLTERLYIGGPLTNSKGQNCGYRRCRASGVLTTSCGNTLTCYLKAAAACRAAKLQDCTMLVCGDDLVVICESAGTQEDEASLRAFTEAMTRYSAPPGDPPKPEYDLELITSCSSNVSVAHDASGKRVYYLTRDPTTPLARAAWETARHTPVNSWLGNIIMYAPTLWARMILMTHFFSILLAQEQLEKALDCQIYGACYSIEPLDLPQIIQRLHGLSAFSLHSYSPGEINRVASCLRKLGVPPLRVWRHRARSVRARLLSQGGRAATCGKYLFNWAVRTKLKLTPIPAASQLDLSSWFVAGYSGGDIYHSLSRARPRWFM
Protocol: HCV NS5B RdRp cloning, expression, and purification. The cDNA encoding the NS5B protein of HCV, genotype 1b, was cloned into the pET21a expression vector. The protein was expressed with an 18 amino acid C-terminal truncation to enhance the solubility. The E. coli competent cell line BL21(DE3) was used for expression of the protein. Cultures were grown at 37° C. for ˜4 hours until the cultures reached an optical density of 2.0 at 600 nm. The cultures were cooled to 20° C. and induced with 1 mM IPTG. Fresh ampicillin was added to a final concentration of 50 μg/ml and the cells were grown overnight at 20° C.
Cell pellets (3 L) were lysed for purification to yield 15-24 mgs of purified NS5B. The lysis buffer consisted of 20 mM Tris-HCl, pH 7.4, 500 mM NaCl, 0.5% triton X-100, 1 mM DTT, 1 mM EDTA, 20% glycerol, 0.5 mg/ml lysozyme, 10 mM MgCl2, 15 ug/ml deoxyribonuclease I, and Complete TM protease inhibitor tablets (Roche). After addition of the lysis buffer, frozen cell pellets were resuspended using a tissue homogenizer. To reduce the viscosity of the sample, aliquots of the lysate were sonicated on ice using a microtip attached to a Branson sonicator. The sonicated lysate was centrifuged at 100,000×g for 1 hr at 4° C. and filtered through a 0.2 μm filter unit (Corning).
The protein was purified using two sequential chromatography steps: Heparin sepharose CL-6B and polyU sepharose 4B (Pharmacia). The chromatography buffers were identical to the lysis buffer but contained no lysozyme, deoxyribonuclease I, MgCl2 or protease inhibitor and the NaCl concentration of the buffer was adjusted according to the requirements for charging the protein onto the column. Each column was eluted with a NaCl gradient which varied in length from 5-50 column volumes depending on the column type. After the final chromatography step, the resulting purity of the enzyme is >90% based on SDS-PAGE analysis. The enzyme was aliquoted and stored at −80° C.
Standard HCV NS5B RdRp enzyme assay. HCV RdRp genotype 1b assays were run in a final volume of 60 μl in 96 well plates (Corning 3600). The assay buffer is composed of 20 mM Hepes, pH 7.5, 2.5 mM KCl, 2.5 mM MgCl2, 1 mM DTT, 1.6 U RNAse inhibitor (Promega N2515), 0.01 mg/ml BSA (Sigma B6917), and 2% glycerol. All compounds were serially diluted (3-fold) in DMSO and diluted further in water such that the final concentration of DMSO in the assay was 2%. HCV RdRp genotype 1b enzyme was used at a final concentration of 28 nM. A polyA template was used at 6 nM, and a biotinylated oligo-dT12 primer was used at 180 nM final concentration. Template was obtained commercially (Amersham 27-4110). Biotinylated primer was prepared by Sigma Genosys. 3H-UTP was used at 0.6 μCi (0.29 μM total UTP). Reactions were initiated by the addition of enzyme, incubated at 30° C. for 60 min, and stopped by adding 25 μl of 50 mM EDTA containing SPA beads (4 μg/μl, Amersham RPNQ 0007). Plates were read on a Packard Top Count NXT after >1 hr incubation at room temperature.
Modified HCV NS5B RdRp enzyme assay. A modified enzyme assay was performed essentially as described for the standard enzyme assay except for the following: The biotinylated oligo dT12 primer was precaptured on streptavidin-coated SPA beads by mixing primer and beads in assay buffer and incubating at room temperature for one hour. Unbound primer was removed after centrifugation. The primer-bound beads were resuspended in 20 mM Hepes buffer, pH 7.5 and used in the assay at final concentrations of 20 nM primer and 0.67 μg/μl beads. Order of addition in the assay: enzyme (1.75 nM) was added to diluted compound followed by the addition of a mixture of template (0.36 nM), 3H-UTP (0.6 μCi, 0.29 μM), and primer-bound beads, to initiate the reaction; concentrations given are final. Reactions were allowed to proceed for 4 hours at 30° C.
IC50 values for compounds were determined using seven different [I]. […]

Compound | EC50 (HCV replicon cells) [nM] | IC50 (HCV NS5B) [nM]
COc1ccc2c(c1)C1CC1(C(=O)N1CC3CN(C)CC3C1)Cn1c-2c(C2CCCCC2)c2ccc(C(=O)NS(=O)(=O)C3CC3)cc21 (centres unmarked) | 4.58 to 500 | 4.58 to 500
COc1ccc2c(c1)C1CC1(C(=O)N1CCN3CCC[C@@H]3C1)Cn1c-2c(C2CCCCC2)c2ccc(C(=O)NS(C)(=O)=O)cc21 (some centres unmarked) | 4.58 to 500 | 4.58 to 500
COc1ccc2c(c1)C1CC1(C(=O)N1CCN3CCCCC3C1)Cn1c-2c(C2CCCCC2)c2ccc(C(=O)NS(C)(=O)=O)cc21 (centres unmarked) | 4.58 to 500 | 4.58 to 500
COc1ccc2c(c1)C1CC1(C(=O)N1CC3CCCN(C)C3C1)Cn1c-2c(C2CCCCC2)c2ccc(C(=O)NS(=O)(=O)C3CC3)cc21 (centres unmarked) | 4.58 to 500 | 4.58 to 500
COc1ccc2c(c1)C1CC1(C(=O)N1CCN3CCCCC3C1)Cn1c-2c(C2CCCCC2)c2ccc(C(=O)NS(=O)(=O)N(C)C)cc21 (centres unmarked) | 4.58 to 500 | 4.58 to 500
COc1ccc2c(c1)C1CC1(C(=O)N1C[C@H]3CNC[C@H]3C1)Cn1c-2c(C2CCCCC2)c2ccc(C(=O)NS(=O)(=O)N(C)C)cc21 (some centres unmarked) | 4.58 to 500 | 4.58 to 500
COc1ccc2c(c1)C1CC1(C(=O)N1CCN3CCC[C@H]3C1)Cn1c-2c(C2CCCCC2)c2ccc(C(=O)NS(=O)(=O)N3CCOCC3)cc21 (some centres unmarked) | 4.58 to 500 | 4.58 to 500
COc1ccc2c(c1)C1CC1(C(=O)N1CCN3CCC[C@H]3C1)Cn1c-2c(C2CCCCC2)c2ccc(C(=O)NS(=O)(=O)N3CCC3)cc21 (some centres unmarked) | 4.58 to 500 | 4.58 to 500
COc1ccc2c(c1)C1CC1(C(=O)N1CC3CN(C(=O)N4CCCC4)CC3C1)Cn1c-2c(C2CCCCC2)c2ccc(C(=O)NS(=O)(=O)N(C)C)cc21 (centres unmarked) | 4.58 to 500 | 4.58 to 500
COc1ccc2c(c1)C1CC1(C(=O)N1CCC[C@H]3CN(Cc4ccccc4)C[C@H]31)Cn1c-2c(C2CCCCC2)c2ccc(C(=O)NS(=O)(=O)C3CC3)cc21 (some centres unmarked) | 4.58 to 500 | 4.58 to 500
COc1ccc2c(c1)C1CC1(C(=O)N1CC3CCCN(C(=O)OC(C)(C)C)C3C1)Cn1c-2c(C2CCCCC2)c2ccc(C(=O)NS(=O)(=O)C3CC3)cc21 (centres unmarked) | 4.58 to 500 | 4.58 to 500
COc1ccc2c(c1)C1CC1(C(=O)N1CCN3CCCC3C1C)Cn1c-2c(C2CCCCC2)c2ccc(C(=O)NS(=O)(=O)N(C)C)cc21 (centres unmarked) | 4.58 to 500 | 4.58 to 500
CNC(=O)N1CCCC2CN(C(=O)C34CC3c3cc(OC)ccc3-c3c(C5CCCCC5)c5ccc(C(=O)NS(=O)(=O)N(C)C)cc5n3C4)CC21 (centres unmarked) | 4.58 to 500 | 4.58 to 500
COc1ccc2c(c1)C1CC1(C(=O)N1CCC[C@H]3CN(C)C[C@H]31)Cn1c-2c(C2CCCCC2)c2ccc(C(=O)NS(=O)(=O)N(C)C)cc21 (some centres unmarked) | 4.58 to 500 | 4.58 to 500
COc1ccc2c(c1)C1CC1(C(=O)N1CC3CNCC3C1)Cn1c-2c(C2CCCCC2)c2ccc(C(=O)NS(N)(=O)=O)cc21 (centres unmarked) | > 500 | 4.58 to 500
CCS(=O)(=O)NC(=O)c1ccc2c(C3CCCCC3)c3n(c2c1)CC1(C(=O)N2CCN4CCCC4C2)CC1c1cc(OC)ccc1-3 (centres unmarked) | 4.58 to 500 | 4.58 to 500
COc1ccc2c(c1)C1CC1(C(=O)N1CC3CCCN(C)C3C1)Cn1c-2c(C2CCCCC2)c2ccc(C(=O)NS(=O)(=O)N(C)C)cc21 (centres unmarked) | 4.58 to 500 | 4.58 to 500
COc1ccc2c(c1)C1CC1(C(=O)N1CCN3CCC[C@H]3C1)Cn1c-2c(C2CCCCC2)c2ccc(C(=O)NS(=O)(=O)C3CC3)cc21 (some centres unmarked) | 4.58 to 500 | 4.58 to 500
COc1ccc2c(c1)C1CC1(C(=O)N1CCN3CCCC3C1)Cn1c-2c(C2CCCCC2)c2ccc(C(=O)NS(=O)(=O)N3CCC3)cc21 (centres unmarked) | 4.58 to 500 | 4.58 to 500
COc1ccc2c(c1)C1CC1(C(=O)N1CC3CN(C(=O)OC(C)(C)C)CC3C1)Cn1c-2c(C2CCCCC2)c2ccc(C(=O)NS(=O)(=O)N(C)C)cc21 (centres unmarked) | 4.58 to 500 | 4.58 to 500
COc1ccc2c(c1)C1CC1(C(=O)N1CC3CCCNC3C1)Cn1c-2c(C2CCCCC2)c2ccc(C(=O)NS(=O)(=O)C3CC3)cc21 (centres unmarked) | 4.58 to 500 | 4.58 to 500
COc1ccc2c(c1)[C@@H]1C[C@]1(C(=O)N1CC3CCCN(C(C)=O)C3C1)Cn1c-2c(C2CCCCC2)c2ccc(C(=O)NS(=O)(=O)N(C)C)cc21 (some centres unmarked) [drawing 72] | 4.58 to 500 | 4.58 to 500
COc1ccc2c(c1)C1CC1(C(=O)N1CC3CCCN(C(C)=O)C3C1)Cn1c-2c(C2CCCCC2)c2ccc(C(=O)NS(=O)(=O)N(C)C)cc21 (centres unmarked) [drawing 34] | 4.58 to 500 | 4.58 to 500
COc1ccc2c(c1)C1CC1(C(=O)N1CC3CN(C(C)=O)CC3C1)Cn1c-2c(C2CCCCC2)c2ccc(C(=O)NS(=O)(=O)N(C)C)cc21 (centres unmarked) | 4.58 to 500 | 4.58 to 500
COc1ccc2c(c1)C1CC1(C(=O)N1CCC[C@H]3CNC[C@H]31)Cn1c-2c(C2CCCCC2)c2ccc(C(=O)NS(=O)(=O)N(C)C)cc21 (some centres unmarked) | 4.58 to 500 | 4.58 to 500
COc1ccc2c(c1)C1CC1(C(=O)N1CC3CN(C(=O)OC(C)(C)C)CC3C1)Cn1c-2c(C2CCCCC2)c2ccc(C(=O)NS(=O)(=O)C3CC3)cc21 (centres unmarked) | – | 4.58 to 500
COc1ccc2c(c1)C1CC1(C(=O)N1CC3CN(C(=O)N(C)C)CC3C1)Cn1c-2c(C2CCCCC2)c2ccc(C(=O)NS(N)(=O)=O)cc21 (centres unmarked) | – | 4.58 to 500
COc1ccc2c(c1)C1CC1(C(=O)N1CC3CN(C(=O)C4CC4)CC3C1)Cn1c-2c(C2CCCCC2)c2ccc(C(=O)NS(N)(=O)=O)cc21 (centres unmarked) | – | 4.58 to 500
